Patent US20250120927A1, “CNDP2 MODULATORS AND METHODS FOR THEIR USE” (Metabolon Inc., priority 2023, published 2025)
Where “and” joins values, the source holds several entries; their conditions need not be identical. Equal values may be shown once. Where a name gives a salt, the structure may show the parent alone.

Target: CNDP2 (Homo sapiens (Human), UniProt Q96KP4)
Test: CNDP2 enzyme inhibition assay (Met-His hydrolysis, free histidine by o-phthaldialdehyde fluorescence), dose-response
Assay type: biochemical
Method: To identify optimal conditions for identifying novel inhibitors of CNDP2, enzyme assays were performed with varied sources of purified enzyme, concentrations of enzyme, peptide substrates, concentrations of peptide substrates and metal cofactors. […] The reaction mixture was incubated for 30 minutes at 37° C. before it was quenched with an equal volume of 1% TCA. Free histidine was quantified after derivatization with a fluorophore (o-phthaldialdehyde from Sigma-Aldrich, excitation 340 nm, emission 460 nm). The reaction was conducted in an automation-friendly format to meet future screening throughput demands. A histidine titration standard curve was also included to enable conversion of fluorescence signal to molar concentration of histidine released by the hydrolysis reaction and to ensure the linearity of the fluorescence signal vs. free histidine.
Compounds of Formula (I) disclosed herein were screened for potency in inhibiting CNDP2 enzyme activity in a dose-response experiment. Bestatin was included with each batch of test molecules as a benchmark for assay quality control.

[1] = 50 nM purified CNDP2 (Sino Biological), 1 mM Met-His substrate, 30 minutes at 37° C., TABLE 2

Chain of CNDP2 (Q96KP4 whole entry): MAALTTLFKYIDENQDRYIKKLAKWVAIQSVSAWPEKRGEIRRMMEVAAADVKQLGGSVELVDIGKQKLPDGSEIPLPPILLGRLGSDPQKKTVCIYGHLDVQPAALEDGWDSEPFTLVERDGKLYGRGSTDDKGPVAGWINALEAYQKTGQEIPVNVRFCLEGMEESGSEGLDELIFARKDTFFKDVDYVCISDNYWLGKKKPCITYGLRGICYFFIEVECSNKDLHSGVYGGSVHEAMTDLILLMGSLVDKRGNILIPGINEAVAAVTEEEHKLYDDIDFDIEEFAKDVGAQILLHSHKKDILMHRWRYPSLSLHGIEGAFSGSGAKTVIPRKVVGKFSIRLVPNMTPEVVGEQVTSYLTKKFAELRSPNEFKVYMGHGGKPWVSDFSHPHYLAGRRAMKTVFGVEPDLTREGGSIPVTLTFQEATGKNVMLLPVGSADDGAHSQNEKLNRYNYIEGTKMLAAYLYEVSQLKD

Row | IC50 [1] | IC50 (50 nM purified CNDP2 (Sino Biological), 1 mM Met-His substrate, 30 minutes at 37° C., TABLE 1) | IC50 (bestatin 10 microM down to 5 pM, consistent across run days) | SMILES
1 | < 100 nM |  |  | N[C@H](Cc1ccccc1)[C@H](O)C(=O)N[C@H](C(=O)O)c1ccc(F)c(OC(F)(F)F)c1F [Compound 114, (S)-2-((2S,3R)-3-amino-2-hydroxy-4-phenylbutanamido)-2-(2,4-difluoro-3-(trifluoromethoxy)phenyl)acetic acid hydrochloride]
2 | ≥ 1000 nM and 100 to 1000 nM |  |  | N[C@H](Cc1ccccc1)[C@H](O)C(=O)N[C@H](C(=O)O)c1cccc2c1OC(F)(F)O2 [Compound 115, (S)-2-((2S,3R)-3-amino-2-hydroxy-4-phenylbutanamido)-2-(2,2-difluorobenzo[d][1,3]dioxol-4-yl)acetic acid hydrochloride]
3 | ≥ 1000 nM |  |  | N[C@H](Cc1ccccc1)[C@H](O)C(=O)N[C@@H](Cc1ccc(OC(F)(F)F)cc1)C(=O)O [Compound 117, (S)-2-((2S,3R)-3-amino-2-hydroxy-4-phenylbutanamido)-3-(4-(trifluoromethoxy)phenyl)propanoic acid]
4 | < 100 nM |  |  | N[C@H](Cc1ccccc1)[C@H](O)C(=O)N[C@@H](Cc1cccc(OC(F)(F)F)c1)C(=O)O [Compound 118, (S)-2-((2S,3R)-3-amino-2-hydroxy-4-phenylbutanamido)-3-(3-(trifluoromethoxy)phenyl)propanoic acid]
5 | 100 to 1000 nM |  |  | N[C@H](Cc1ccccc1)[C@H](O)C(=O)N[C@@H](Cc1ccc(OC(F)(F)F)c(F)c1)C(=O)O [Compound 119, (S)-2-((2S,3R)-3-amino-2-hydroxy-4-phenylbutanamido)-3-(3-fluoro-4-(trifluoromethoxy)phenyl)propanoic acid]
6 | ≥ 1000 nM |  |  | N[C@H](Cc1ccc(Cl)cc1)[C@H](O)C(=O)N[C@H](C(=O)O)c1cccc(OC(F)(F)F)c1 [Compound 127, (S)-2-((2S,3R)-3-amino-4-(4-chlorophenyl)-2-hydroxybutanamido)-2-(3-(trifluoromethoxy)phenyl)acetic acid]
7 | ≥ 1000 nM |  |  | N[C@H](Cc1ccc(Cl)cc1)[C@H](O)C(=O)N[C@@H](C(=O)O)c1cccc(OC(F)(F)F)c1 [Compound 128, (R)-2-((2S,3R)-3-amino-4-(4-chlorophenyl)-2-hydroxybutanamido)-2-(3-(trifluoromethoxy)phenyl)acetic acid]
8 | ≥ 1000 nM |  |  | N[C@H](Cc1ccc(Br)cc1)[C@H](O)C(=O)N[C@H](C(=O)O)c1cccc(OC(F)(F)F)c1 [Compound 129, (S)-2-((2S,3R)-3-amino-4-(4-bromophenyl)-2-hydroxybutanamido)-2-(3-(trifluoromethoxy)phenyl)acetic acid]
9 | ≥ 1000 nM |  |  | N[C@H](Cc1ccc(Br)cc1)[C@H](O)C(=O)N[C@@H](C(=O)O)c1cccc(OC(F)(F)F)c1 [Compound 130, (R)-2-((2S,3R)-3-amino-4-(4-bromophenyl)-2-hydroxybutanamido)-2-(3-(trifluoromethoxy)phenyl)acetic acid]
10 | 100 to 1000 nM |  |  | N[C@H](Cc1ccc(C(F)(F)F)cc1)[C@H](O)C(=O)N[C@@H](C(=O)O)c1cccc(OC(F)(F)F)c1 [Compound 132, (R)-2-((2S,3R)-3-amino-2-hydroxy-4-(4-(trifluoromethyl)phenyl)butanamido)-2-(3-(trifluoromethoxy)phenyl)acetic acid]
11 | ≥ 1000 nM |  |  | N[C@H](Cc1ccc(C(F)(F)F)cc1)[C@H](O)C(=O)N[C@H](C(=O)O)c1cccc(OC(F)(F)F)c1 [Compound 133]
12 | ≥ 1000 nM |  |  | N[C@H](Cc1ccc(C(F)(F)F)cc1)[C@H](O)C(=O)N[C@@H](C(=O)O)c1cccc(OC(F)(F)F)c1 [Compound 134]
13 |  | ≥ 1000 nM | ~2000 nM | CC(C)C[C@H](NC(=O)[C@@H](O)[C@H](N)Cc1ccccc1)C(=O)O [bestatin, reference compound]
